Measured values: patent US4758555A, “Method for treating convulsions and epilepsy with organic copper compounds” (priority 1986, dated 1988)
“Also recorded” adds a separate entry of the source.

How the values were obtained:
[1] = mouse, in vivo; cited from earlier work
[2] = 85 mg/kg subcutaneous; cited from earlier work
[3] = Anticonvulsant activity, both or unspecified seizure models; format: in vivo, male Carworth Farms #1 mice or Sprague-Dawley rats
[4] = Maximal Electroshock Seizure Test; format: in vivo, male Carworth Farms #1 mice or Sprague-Dawley rats; conditions: Mus musculus; Table X; IP; at time of peak activity; read-out: ED50 for inhibition of seizures, MES (Phase II)
[5] = cited from earlier work

SMILES	CNS stimulation / rotating rod toxicity (known) [1]	Seizures produced [2]	Time of peak effect ([3]; Phase II) [h]	Time of peak activity (Phase II) ([3]; Table X, IP, challenge time) [h]	ED50 [4] [mg/kg]	Known effect of parent drug on seizures [5]
C1CCc2nnnn2CC1 [Metrazol, pentylenetetrazol]	potent central nervous system stimulant; also recorded: marked rotating rod toxicity	greater than 97 % of mice	–	–	–	–
O=C1NC(=O)C(c2ccccc2)(c2ccccc2)N1 [Dilantin, Phenytoin, reference compound]	–	–	1	1	7	known to only inhibit Maximal Electroshock-induced seizures but it potentiates Metrazol-induced seizures
